Results as given in patent publication EP0189971A2, “Composition containing a thiadiazole derivative and method for treating plants against bacteria” (PALIMPORT LTD., priority 1985, dated 1986).
Like-named read-outs stand apart in the source and are kept apart here.

Legend:
X. campestris = conditions: for Percent of infected seedlings: cupric acetate 0.1 %
Procedure: (§1) In this method, the efficacy of the disinfection is examined by a bioassay. After seed disinfection, the seeds are dried and sown in the soil, and kept in a humid cell with suitable temperature. The efficacy of the treatment is determined by the level of infestation in the seedlings.
Trials were carried out in seeds of cabbage and cauliflower infested with Xanthomonas camoestris. […] Seeds were dipped in all treatments for 10 to 20 minutes at temperatures of 25°C and 45°C.
The efficacy of the disinfection process was checked in a bio assay system.

X. translucens = conditions: for Bacteria per gr. seeds: cupric acetate 0.1%, infected seeds
Procedure: In this method, live bacterial pathogens that survived the seed disinfection, were counted. Treated seeds were dried by vaporization. Five grams of dried seeds from each treatment were ground in a grinder of 20 mesh and transferred to a solution containing 0.1% agar in water and were shaken for 30 minutes. From each sample, 10x dilutions were prepared. From each of the various dilutions, 0.1 ml was taken and placed in a suitable medium in a petri-dish, with a Drigalski stick. After 4 days of incubation at temperature of 27°C, colonies of the bacterial pathogens were counted in each petri-dish.
The assessment of efficacy was carried out by counting of the number of bacteria that remained alive in the seeds after the disinfection and in a bio-assay system. (See Materials and Methods).
In this trial the efficacy of the products in disinfecting wheat seeds was tested at various periods of time from 5 to 60 minutes. Disinfected seeds were compared with seeds treated with water (check) and with seeds that were defined in laboratory as seeds clean from the pathogen. Efficacy of the treatments was measured by counting the amount of bacteria that remained alive in the seeds. The trial was carried out in five replicates.

Pseudomonas tomato [1] = conditions: cupric acetate 0.1 %
Procedure: In all trials, seed disinfection was carried out by dipping the seeds in different chemical solutions. The variable factors were: • 1. Different times of dipping: 10, 20, 30 and 60 minutes. • 2.. Different temperatures of dipping: room temperature (20°C), and a higher temperature (45°C).
as §1
In tomatoes, disinfection trials were carried out against two bacterial diseases. Most of the work was done in order to examine the efficacy of the mixtures in controlling bacterial specic of tomato caused by Pseudomonas tomato. Later on some trials were carried out against a relatively new disease in Israel - "rotten pith" caused by P. coruoata. Trial 7
Also, different dipping times and temperatures were checked. Efficacy of disinfection was evaluated by assessing the disease appearance in the seedlings which was caused by infection of the treated seeds.

Pseudomonas tomato [2] = experiment: Preventative foliage spraying of tomato seedlings in greenhouse; type: in vivo; conditions: for Average level of ill seedlings: Cupric acetate 0.15 %, levels 0-5
Procedure: The trials were carried out against bacterial diseases in the following crops: • a. In pepper - Bacterial spot of pepper (Xanthomonas vesicatoria). • b. In tomatoes - Bacterial specic of tomato (Pseudomonas tomato). • c. In cauliflower - Black rot (Xanthomonas camoestris). • 2. […].
In trials that were carried out in the greenhouse, plants at age of 3 - 5 leaves that were grown in "speedling system", were used. Plants were allowed to grow in the original trays without contact between them.
About 48 hours before the infection, the bacterial pathogen was transferred (for multiplication) to a suitable growth medium (see materials and methods of para I hereinbefore)at optimal temperature until all the medium was covered by bacteria. Then a suspension of bacteria at concentration of 1 x 10' - […] per cm^2 was prepared. The bacterial suspension was sprayed to runoff with a hand sprayer on to the leaves of the test plants. Spraying was made on dry leaves with the addition of carborundum to the spray solution in order to ensure better infection. In trials where the efficacy of the treatments was evaluated in preventative treatments, the application was given a few hours before the bacterial infection.
In the preventative treatments, the products were applied a few hours before the bacterial infection. In the curative treatments, the application was carried out 20 hours after bacterial infection. After application, when plants dried out they were transferred to a fog chamber with controlled conditions.
In trials that were carried out in the greenhouse, the plants were transferred after the application and infection, to control conditions of fogginess and suitable temperatures for bactena, till the end of the trial.
Infection was evaluated in the seedlings according to the following key: 0 = healthy seedling, without symptoms of disease, 5 = complete coverage of the seedling with spots of disease, or dead seedling. The intermediate degrees were given according to the severity of the disease in the leaves.
In tomatoes, several trials were carried out in greenhouse under conditions of fog chamber and artificial infection in order to evaluate the efficacy of Terrazole (trade mark) and copper, in different rates and combinations, in preventing and controlling bacterial diseases specic of tomato caused by Pseudomonastomato.
In one trial, various treatments were examined in prevention of disease, as appears in Table IX.

[3] = tested on: Pseudomonas tomato, Xanthomonasvesicatoria, X. translucens, X. camoestris; conditions: 0.8% cupric acetate in aqueous solution; each of the four species
Procedure: G. Evaluation of product activity by direct contact with the bacteria: • The efficacy of a number of products by a direct contact with the bacteria was checked as follows: Preparation of solutions of different concentrations of the examined products. Soaked bacteria suspension in the solutions for a period of 10 minutes. Filtration of the solution containing bacteria through milipore disc, so that the bacteria are concentrated on the disc. Rinsing the disc with distilled water. Placing the disc in a measured amount of water with 0.1 % agar, and shaking the disc in this solution in order to transfer the bacteria from the disc to the solution. Making 10x dilutions and direct placing on suitable medium (see section F1 above).
In this trial, 11 concentrations of cupric-acetate in aqueous solution were checked, from 0.001 - 0.8% by weight. […] All treatments were checked against the four species of bacteria mentioned.

cupric acetate
Percent of infected seedlings (X. campestris; 25 °C 10 min.): 78.6% | Percent of infected seedlings (X. campestris; 25 °C 20 min.): 56.0% | Percent of infected seedlings (X. campestris; 40 °C 10 min.): 45.0% | Percent of infected seedlings (X. campestris; 40 °C 20 min.): 35.0% | disease control (X. campestris; cupric acetate, at any of the trial conditions): ≤ 38% | Bacteria per gr. seeds (X. translucens; 5 minutes): 6040 b per gr. seeds | Bacteria per gr. seeds (X. translucens; 10 minutes): 2920 b per gr. seeds | Bacteria per gr. seeds (X. translucens; 20 minutes): 496 b per gr. seeds | control in comparison with the untreated seeds (X. translucens; cupric acetate, dipping 20 minutes): 94% | % Infected plants (Pseudomonas tomato [1]; dipping 10 minutes, 25 °C): 28.0% | Improvement in control, in comparison with the untreated control (Pseudomonas tomato [1]; dipping 10 minutes, 25 °C): 37.8 | % Infected plants (Pseudomonas tomato [1]; dipping 10 minutes, 40 °C): 17.0% | Improvement in control, in comparison with the untreated control (Pseudomonas tomato [1]; dipping 10 minutes, 40 °C): 62.2 | % Infected plants (Pseudomonas tomato [1]; dipping 20 minutes, 25 °C): 27.5% | Improvement in control, in comparison with the untreated control (Pseudomonas tomato [1]; dipping 20 minutes, 25 °C): 38.9 | % Infected plants (Pseudomonas tomato [1]; dipping 20 minutes, 40 °C): 14.0% | Improvement in control, in comparison with the untreated control (Pseudomonas tomato [1]; dipping 20 minutes, 40 °C): 68.9 | Percent of ill seedlings (Pseudomonas tomato [2]; Cupric acetate 0.1 %, preventative spraying, ten days after the infection): 34.2% | Average level of ill seedlings (Pseudomonas tomato [2]; 9 days after infection): 0.30 | Average level of ill seedlings (Pseudomonas tomato [2]; 11 days after infection): 1.85 | Average level of ill seedlings (Pseudomonas tomato [2]; 13 days after infection): 2.80 | bacteria remained alive [3]: about 10^3 bacteria per cm^2 of water
